1 compound from paper PMC8319603, “Developing C2-Aroyl Indoles as Novel Inhibitors of IDO1 and Understanding Their Mechanism of Inhibition via Mass Spectroscopy, QM/MM Calculations and Molecular Dynamics Simulation” (Frontiers in Chemistry, 2021) can be followed below.

In the assay the target is T1, indolamine-2, 3-dioxygenase one (IDO1) (Homo sapiens, UniProt P14902).
T1 construct: purchased Biovision P1096
Nature of the assay: Inhibition kinetics (Lineweaver-Burk plots). The class given is biochemical. Particulars: L-tryptophan 1–4 mM, inhibitor 0–1.5 µM; with respect to L-tryptophan. As for the experimental part:
The IDO1 activity assay was performed to measure the formation of […] by absorbance plate reader at 492 nm. The mode of inhibition of the screened compounds was determined from the Lineweaver-Burk plots, which are the double reciprocal plots of enzyme reaction velocities (1/V) vs. substrate concentrations (1/[S]), where V and [S] represent the initial rate of enzymatic reaction and L-tryptophan concentration respectively.

Each structure is given as a SMILES string.

T1 sequence (P14902 whole entry): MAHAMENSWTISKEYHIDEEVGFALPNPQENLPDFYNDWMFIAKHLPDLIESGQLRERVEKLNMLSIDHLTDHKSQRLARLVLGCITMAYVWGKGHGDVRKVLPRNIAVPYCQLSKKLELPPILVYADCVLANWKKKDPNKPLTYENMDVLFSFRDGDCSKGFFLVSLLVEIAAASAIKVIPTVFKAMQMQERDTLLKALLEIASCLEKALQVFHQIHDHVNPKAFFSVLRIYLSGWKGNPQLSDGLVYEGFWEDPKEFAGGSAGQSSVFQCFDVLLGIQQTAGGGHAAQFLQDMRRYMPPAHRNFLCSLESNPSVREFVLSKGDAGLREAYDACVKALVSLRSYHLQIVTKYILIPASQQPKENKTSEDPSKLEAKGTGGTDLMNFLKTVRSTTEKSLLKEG

Consider `CC(=O)NCCc1c(C(=O)c2ccc([N+](=O)[O-])cc2)[nH]c2ccccc12` [8d], for which the “Mode of inhibition of IDO1” value is on record as “competitive”.
